Experimental data from the NIST ThermoML archive (doi:10.1016/j.jct.2018.05.003).
Numbers after ± are expanded uncertainties.

Key:
[1] = activity coefficient (dimensionless); of the first substance listed, at infinite dilution; xn = mol fraction of the nth substance listed; settings: 298.15 K; 101.33 kPa; Liquid; Chromatography; x1 = 0
[2] = Crystal; visual observation

Row | Structure (SMILES) | activity coefficient [1] | Normal melting temperature [2] [°C]
1 | CCCCCl [1-chlorobutane] + CCCCCOC(C)=O | 0.84 ± 0.03 | 
2 | CCCO [propan-1-ol] + CCCCCOC(C)=O | 2.43 ± 0.11 | 
3 | CCCCCC [hexane] + CCCCCOC(C)=O | 1.74 ± 0.1 | 
4 | CC(Cl)CCl (stereo unspecified) [1,2-dichloropropane] + CCCCCOC(C)=O | 0.61 ± 0.03 | 
5 | C1=CCCCC1 [cyclohexene] + CCCCCOC(C)=O | 1.16 ± 0.03 | 
6 | O=C(O)c1ccccc1 [benzoic acid] |  | 122.5 ± 0.9
7 | Fc1ccccc1 [fluorobenzene] + CCCCCOC(C)=O | 0.61 ± 0.03 | 
8 | Cc1ccc(C)cc1 [1,4-dimethylbenzene] + CCCCCOC(C)=O | 0.92 ± 0.03 | 
9 | O=C(O)c1ccccc1O [2-hydroxybenzoic acid] |  | 159.6 ± 1.1
10 | Cc1cccc(C(=O)O)c1 [3-methylbenzoic acid] |  | 109.2 ± 0.9
11 | CC(C)O [propan-2-ol] + CCCCCOC(C)=O | 2.86 ± 0.11 | 
12 | O=C(C(=O)c1ccccc1)c1ccccc1 [1,2-diphenylethanedione] |  | 95.4 ± 1.1
13 | C1COCCO1 [1,4-dioxane] + CCCCCOC(C)=O | 0.91 ± 0.03 | 
14 | C=CCCCC [hex-1-ene] + CCCCCOC(C)=O | 1.22 ± 0.03 | 
15 | CCCCCCC [heptane] + CCCCCOC(C)=O | 1.9 ± 0.1 | 
16 | O=C(O)c1cccc([N+](=O)[O-])c1 [3-nitrobenzoic acid] |  | 141.6 ± 0.9
17 | c1ccc2c(c1)Nc1ccccc1S2 [10H-phenothiazine] |  | 184.8 ± 0.7
18 | Cc1cccc(C)c1 [1,3-dimethylbenzene] + CCCCCOC(C)=O | 0.9 ± 0.03 | 
19 | C1CCCCC1 [cyclohexane] + CCCCCOC(C)=O | 1.51 ± 0.05 | 
20 | Cc1ccccc1 [toluene] + CCCCCOC(C)=O | 0.86 ± 0.04 | 
21 | c1ccccc1 [benzene] + CCCCCOC(C)=O | 0.73 ± 0.03 | 

Row | Structure (SMILES) | activity coefficient [1] | Normal melting temperature [2] [°C]
22 | CCc1ccccc1 [ethylbenzene] + CCCCCOC(C)=O | 0.98 ± 0.04 | 
23 | CCCc1ccccc1 [propylbenzene] + CCCCCOC(C)=O | 1.02 ± 0.06 | 
24 | C[N+](=O)[O-] [nitromethane] + CCCCCOC(C)=O | 1.28 ± 0.05 | 
25 | O=C(O)c1ccc(Cl)c([N+](=O)[O-])c1 [4-chloro-3-nitrobenzoic acid] |  | 183.2 ± 1.1
26 | C=CCCCCC=C [1,7-octadiene] + CCCCCOC(C)=O | 1.14 ± 0.05 | 
27 | C#CCCCCCC [1-octyne] + CCCCCOC(C)=O | 0.85 ± 0.03 | 
28 | O=C(O)c1cc([N+](=O)[O-])ccc1Cl [2-chloro-5-nitrobenzoic acid] |  | 167.0 ± 1.1
29 | CCO [ethanol] + CCCCCOC(C)=O | 2.97 ± 0.12 | 
30 | O=S(=O)(c1ccccc1)c1ccccc1 [diphenyl sulfone] |  | 125.1 ± 0.9
31 | CC(C)Br [2-bromopropane] + CCCCCOC(C)=O | 0.82 ± 0.03 | 
32 | Brc1ccccc1 [bromobenzene] + CCCCCOC(C)=O | 0.78 ± 0.05 | 
33 | CC#N [acetonitrile] + CCCCCOC(C)=O | 1.69 ± 0.05 | 
34 | CCCCCCCC [octane] + CCCCCOC(C)=O | 2.02 ± 0.09 | 
35 | C=CCCCCC [1-heptene] + CCCCCOC(C)=O | 1.35 ± 0.04 | 
36 | CCOC(C)=O [ethyl acetate] + CCCCCOC(C)=O | 0.96 ± 0.03 | 
37 | CC(C)=O [acetone] + CCCCCOC(C)=O | 1.19 ± 0.05 | 
38 | C1CCOC1 [tetrahydrofuran] + CCCCCOC(C)=O | 0.8 ± 0.04 | 
39 | CCCCCCCCC [nonane] + CCCCCOC(C)=O | 2.17 ± 0.14 | 
40 | CCCCCCCCCC [decane] + CCCCCOC(C)=O | 2.5 ± 0.13 | 
41 | ClC(Cl)Cl [trichloromethane] + CCCCCOC(C)=O | 0.27 ± 0.03 | 
